According to PubChem BioAssay AID2060912 (Molecular Pharmacology Branch, DTP, NCI, 2025):

System: HUVEC/MSC spheroids viability
Assay: Human HUVEC/MSC cell line growth inhibition [KRAS2];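 for viability, T/C: percent of DMSO vehicle control luminescence so 100% = untreated viability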
Conditions: for IC50: curve of first compound; for viability, T/C: stronger effect = lower value; active = viability on the fitted dose curve at most 10% of control; inactive = the rest
Outline: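 HUVEC + hMSC stromal spheroids only, no malignant cells; 37 °C, 5% CO2. Drugs singly and in pairs, half-log series down from clinical Cmax (max 10 microM if Cmax undetermined).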

CC1(C)CCC(CN2CCN(c3ccc(C(=O)NS(=O)(=O)c4ccc(NCC5CCOCC5)c([N+](=O)[O-])c4)c(Oc4cnc5[nH]ccc5c4)c3)CC2)=C(c2ccc(Cl)cc2)C1 + C=CC(=O)N1CCN(c2nc(OCC3CCCN3C)nc3c2CCN(c2cccc4cccc(C)c24)C3)CC1CC#N
3.41 µM: IC50 (second compound 3 µM)
5.12 µM: IC50 (second compound 0.00949 µM)
3.93 µM: IC50 (second compound 0.3 µM)
active: viability, T/C (second compound 0.00949 µM, first compound 10 µM) 3.48% | viability, T/C (second compound 0.03 µM, first compound 10 µM) 3.1% | viability, T/C (second compound 0.0949 µM, first compound 10 µM) 1.65% | viability, T/C (second compound 0.3 µM, first compound 10 µM) 1.21% | viability, T/C (second compound 0.949 µM, first compound 10 µM) 3.31% | viability, T/C (second compound 3 µM, first compound 10 µM) 0.24%
3.55 µM: IC50 (second compound 0.949 µM)
4.68 µM: IC50 (second compound 0.0949 µM)
inactive: viability, T/C (second compound 0.00949 µM, first compound 0.0316 µM) 105% | viability, T/C (second compound 0.00949 µM, first compound 0.1 µM) 86.2% | viability, T/C (second compound 0.00949 µM, first compound 0.316 µM) 96.9% | viability, T/C (second compound 0.00949 µM, first compound 1 µM) 91.4% | viability, T/C (second compound 0.00949 µM, first compound 3.16 µM) 83.5% | viability, T/C (second compound 0.03 µM, first compound 0.0316 µM) 99.3% | viability, T/C (second compound 0.03 µM, first compound 0.1 µM) 92% | viability, T/C (second compound 0.03 µM, first compound 0.316 µM) 111% | viability, T/C (second compound 0.03 µM, first compound 1 µM) 94.4% | viability, T/C (second compound 0.03 µM, first compound 3.16 µM) 76% | viability, T/C (second compound 0.0949 µM, first compound 0.0316 µM) 83.1% | viability, T/C (second compound 0.0949 µM, first compound 0.1 µM) 103% | viability, T/C (second compound 0.0949 µM, first compound 0.316 µM) 84.1% | viability, T/C (second compound 0.0949 µM, first compound 1 µM) 94.6% | viability, T/C (second compound 0.0949 µM, first compound 3.16 µM) 75.1% | viability, T/C (second compound 0.3 µM, first compound 0.0316 µM) 73.4% | viability, T/C (second compound 0.3 µM, first compound 0.1 µM) 75.9% | viability, T/C (second compound 0.3 µM, first compound 0.316 µM) 78.7% | viability, T/C (second compound 0.3 µM, first compound 1 µM) 96.8% | viability, T/C (second compound 0.3 µM, first compound 3.16 µM) 61.3% | viability, T/C (second compound 0.949 µM, first compound 0.0316 µM) 67.6% | viability, T/C (second compound 0.949 µM, first compound 0.1 µM) 80.8% | viability, T/C (second compound 0.949 µM, first compound 0.316 µM) 72% | viability, T/C (second compound 0.949 µM, first compound 1 µM) 87.5% | viability, T/C (second compound 0.949 µM, first compound 3.16 µM) 55.3% | viability, T/C (second compound 3 µM, first compound 0.0316 µM) 81% | viability, T/C (second compound 3 µM, first compound 0.1 µM) 86.1% | viability, T/C (second compound 3 µM, first compound 0.316 µM) 94.8% | viability, T/C (second compound 3 µM, first compound 1 µM) 71.2% | viability, T/C (second compound 3 µM, first compound 3.16 µM) 54.7%
4.76 µM: IC50 (second compound 0.03 µM)

Cn1nccc1Nc1nccc(-c2cc3c(s2)C(C)(C)N(CCN2CCOCC2)C3=O)n1 + CNCc1ccccc1-c1csc(C(C)Nc2nc(C)nc3cc(OC)c(OC)cc23)c1
2.49 µM: IC50 (second compound 0.1 µM)
2.59 µM: IC50 (second compound 0.316 µM)
inactive: viability, T/C (second compound 0.0316 µM, first compound 0.0316 µM) 94.5% | viability, T/C (second compound 0.0316 µM, first compound 0.1 µM) 119% | viability, T/C (second compound 0.0316 µM, first compound 0.316 µM) 117% | viability, T/C (second compound 0.0316 µM, first compound 1 µM) 94.7% | viability, T/C (second compound 0.0316 µM, first compound 3.16 µM) 26.9% | viability, T/C (second compound 0.1 µM, first compound 0.0316 µM) 85.8% | viability, T/C (second compound 0.1 µM, first compound 0.1 µM) 103% | viability, T/C (second compound 0.1 µM, first compound 0.316 µM) 105% | viability, T/C (second compound 0.1 µM, first compound 1 µM) 110% | viability, T/C (second compound 0.1 µM, first compound 3.16 µM) 36.7% | viability, T/C (second compound 0.316 µM, first compound 0.0316 µM) 88.2% | viability, T/C (second compound 0.316 µM, first compound 0.1 µM) 96.1% | viability, T/C (second compound 0.316 µM, first compound 0.316 µM) 103% | viability, T/C (second compound 0.316 µM, first compound 1 µM) 111% | viability, T/C (second compound 0.316 µM, first compound 3.16 µM) 39.6% | viability, T/C (second compound 1 µM, first compound 0.0316 µM) 83% | viability, T/C (second compound 1 µM, first compound 0.1 µM) 90.5% | viability, T/C (second compound 1 µM, first compound 0.316 µM) 103% | viability, T/C (second compound 1 µM, first compound 1 µM) 96.7% | viability, T/C (second compound 1 µM, first compound 3.16 µM) 36.2% | viability, T/C (second compound 3.16 µM, first compound 0.0316 µM) 102% | viability, T/C (second compound 3.16 µM, first compound 0.1 µM) 135% | viability, T/C (second compound 3.16 µM, first compound 0.316 µM) 128% | viability, T/C (second compound 3.16 µM, first compound 1 µM) 99.9% | viability, T/C (second compound 3.16 µM, first compound 3.16 µM) 15.4%
1.97 µM: IC50 (second compound 3.16 µM)
2.14 µM: IC50 (second compound 0.0316 µM)
active: viability, T/C (second compound 0.0316 µM, first compound 10 µM) 3.31% | viability, T/C (second compound 0.1 µM, first compound 10 µM) 3.17% | viability, T/C (second compound 0.316 µM, first compound 10 µM) 1.89% | viability, T/C (second compound 1 µM, first compound 10 µM) 0.95% | viability, T/C (second compound 3.16 µM, first compound 10 µM) 0.23% | viability, T/C (second compound 10 µM, first compound 0.0316 µM) 0.35% | viability, T/C (second compound 10 µM, first compound 0.1 µM) 0.4% | viability, T/C (second compound 10 µM, first compound 0.316 µM) 0.48% | viability, T/C (second compound 10 µM, first compound 1 µM) 0.37% | viability, T/C (second compound 10 µM, first compound 3.16 µM) 0.37% | viability, T/C (second compound 10 µM, first compound 10 µM) 0.19%
2.39 µM: IC50 (second compound 1 µM)
< 0.0316 µM: IC50 (second compound 10 µM)
